Data taken from patent US11560372B2, “Heterocyclic compounds useful as modulators of acetylcholine receptors” (TAKEDA PHARMACEUTICAL COMPANY LIMITED, priority 2017, dated 2023).

Molecular target: T1, MDR1 (Homo sapiens, UniProt P08183)
T1 construct: expressed in transfected cells
Test: MDR1 membrane permeability test
Assay type: in vitro ADME
Conditions: pH 7.4, efflux ratio (ER), Papp B to A / A to B, human MDR1-expressing LLC-PK1 cells, read-out: MDR1 substrate screening 1 μM (MDRSUB1)/Ratio (NUMBER)
Experimental: MDR1 Membrane Permeability Test
When MDR1 is expressed in excess in LLC-PK1 cell, which is a polar cell, MDR1 is localized in apical membrane (A), thus promoting transcellular transport from the basement membrane side (B) toward direction A. When a ratio to the transcellular transport in the opposite direction is taken and a ratio to a control cell in which a mock vector has been introduced is further taken, an efflux ratio of MDR1 to simple diffusion (corrected efflux ratio) is calculated. Similarly, when a brain/plasma concentration ratio in Mdr1(−/−) mouse is divided by a brain/plasma concentration ratio in wild-type mouse, an efflux ratio of Mdr1 to simple diffusion in BBB (Kp, brain ratio, higher value means lower central nervous system permeability) is calculated. Adachi Y. et al. (Reference 1) has reported a positive correlation between corrected efflux ratio and Kp, brain ratio (FIG. 5(C)), and efflux ratio in MDR1 expressing cell and Kp, brain ratio (FIG. 5(B)).
To confirm the central nervous system permeability of the compounds of the present invention, a MDR1 membrane permeability test was performed by the following method.
Human MDR1-expressing LLC-PK1 cells were cultured according to the report of Takeuchi et al. (Reference 2). Human MDR1-expressing LLC-PK1 cells were cultured in 10% fetal bovine serum (Invitrogen), 500 μg/ml G418 (Invitrogen), 150 ng/ml colchicine-containing M199 medium (Invitrogen) under 5% CO2 conditions at 37° C.
Transcellular transport was performed according to the report of Sugimoto et al. (Reference 3). The cells were cultured for 3 days on HTS Transwell (registered trademark) 96 well permeable support (pore size 0.4 μm, 0.143 cm^2 surface area, Corning Life Sciences) having polyethylene terephthalate membrane on which the cells had been seeded at 3.45×10^4 cells/well. After preincubation in M199 medium (containing 10 mmol/L HEPES, 1% BSA, pH 7.4) for 30 min, a drug solution (10 μmol/L digoxin, 200 μmol/L LY, […]) dissolved in M199 medium was added to the apical side or basolateral side of the Transwell by 75 or 250 μL each and the cells were cultured under 5% CO2 conditions at 37° C. After 1 hr, the sample was collected from the side opposite to the side where the drug solution was added, and the concentration of the test compound was measured by LC-MS/MS. As an internal standard substance, 100 ng/mL alprenolol and diclofenac were used. The analysis conditions were as follows.
Papp, A to B and Papp, B to A (apparent permeability) were calculated from the formula (1), and the efflux ratio (ER) was calculated from the formula (2).

T1 sequence (P08183 whole entry): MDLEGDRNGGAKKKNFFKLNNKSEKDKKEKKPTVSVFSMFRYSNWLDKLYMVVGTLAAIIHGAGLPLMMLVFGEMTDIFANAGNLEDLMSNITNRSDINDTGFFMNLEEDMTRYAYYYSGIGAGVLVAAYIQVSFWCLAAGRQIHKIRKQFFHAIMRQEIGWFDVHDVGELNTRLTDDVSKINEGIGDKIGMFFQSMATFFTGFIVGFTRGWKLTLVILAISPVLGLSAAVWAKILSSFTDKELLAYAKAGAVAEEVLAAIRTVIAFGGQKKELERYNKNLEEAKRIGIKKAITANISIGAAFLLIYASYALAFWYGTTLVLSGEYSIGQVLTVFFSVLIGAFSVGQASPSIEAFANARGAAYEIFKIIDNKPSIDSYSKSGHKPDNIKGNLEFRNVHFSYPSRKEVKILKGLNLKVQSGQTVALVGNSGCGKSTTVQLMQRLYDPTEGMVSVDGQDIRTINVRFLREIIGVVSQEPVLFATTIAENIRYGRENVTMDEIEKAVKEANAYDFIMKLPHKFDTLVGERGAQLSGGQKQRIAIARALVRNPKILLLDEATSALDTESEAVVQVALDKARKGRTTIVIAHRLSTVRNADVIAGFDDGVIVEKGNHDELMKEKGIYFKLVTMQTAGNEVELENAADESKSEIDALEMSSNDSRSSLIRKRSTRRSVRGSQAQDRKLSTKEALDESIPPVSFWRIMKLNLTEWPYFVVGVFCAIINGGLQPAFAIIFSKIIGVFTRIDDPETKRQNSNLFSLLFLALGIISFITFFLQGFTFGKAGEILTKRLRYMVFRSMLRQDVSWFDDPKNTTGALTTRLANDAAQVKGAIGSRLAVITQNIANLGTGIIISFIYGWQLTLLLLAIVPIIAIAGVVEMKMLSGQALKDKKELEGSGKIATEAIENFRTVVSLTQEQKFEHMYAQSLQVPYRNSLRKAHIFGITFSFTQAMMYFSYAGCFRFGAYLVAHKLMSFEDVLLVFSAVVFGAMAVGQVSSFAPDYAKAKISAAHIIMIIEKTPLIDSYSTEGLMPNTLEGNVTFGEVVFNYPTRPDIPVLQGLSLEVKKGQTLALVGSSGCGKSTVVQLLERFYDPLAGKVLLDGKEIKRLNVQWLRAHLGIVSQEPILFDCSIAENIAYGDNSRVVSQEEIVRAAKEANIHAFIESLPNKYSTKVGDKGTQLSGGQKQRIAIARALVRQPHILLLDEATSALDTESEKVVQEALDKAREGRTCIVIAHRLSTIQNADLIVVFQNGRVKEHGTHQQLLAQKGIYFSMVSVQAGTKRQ

Row | SMILES | efflux ratio at 1 hr, 1 μM
1 | Cc1c(Cc2ccc(C(=O)NCCCF)cc2)cc2c(=O)n([C@H]3CCOC[C@@H]3O)cnc2c1C [Example 34, 1,5-anhydro-2,3-dideoxy-3-(6-(4-((3-fluoropropyl)carbamoyl)benzyl)-7,8-dimethyl-4-oxoquinazolin-3 (4H)-yl)-L-threo-pentitol] | 20
2 | Cc1c(Cc2ccc(C(=O)NCCN3CCCC3)c(F)c2)cc2c(=O)n([C@H]3CCOC[C@@H]3O)cnc2c1C [Example 78, 1,5-anhydro-2,3-dideoxy-3-(6-(3-fluoro-4-((2-(pyrrolidin-1-yl)ethyl)carbamoyl)benzyl)-7,8-dimethyl-4-oxoquinazolin-3 (4H)-yl)-L-threo-pentitol] | 56
3 | Cc1ccc(Cc2cc3c(=O)n([C@H]4CCOC[C@@H]4O)cnc3c(Cl)c2C)cn1 [Example 16, 1,5-anhydro-3-(8-chloro-7-methyl-6-((6-methylpyridin-3-yl)methyl)-4-oxoquinazolin-3(4H)-yl)-2,3-dideoxy-L-threo-pentitol] | 6.8
4 | CNC(=O)c1ccc(Cc2cc3c(=O)n([C@H]4CCOC[C@@H]4O)cnc3c(Cl)c2C)cc1F [Example 10, 1,5-anhydro-3-(8-chloro-6-(3-fluoro-4-(methylcarbamoyl)benzyl)-7-methyl-4-oxoquinazolin-3(4H)-yl)-2,3-dideoxy-L-threo-pentitol] | 15
5 | Cc1c(Cc2ccc(C(=O)NC3CC3)cc2)cc2c(=O)n([C@H]3CCOC[C@@H]3O)cnc2c1C [Example 44, 1,5-anhydro-3-(6-(4-(cyclopropylcarbamoyl)benzyl)-7,8-dimethyl-4-oxoquinazolin-3 (4H)-yl)-2,3-dideoxy-L-threo pentitol] | 22
6 | Cc1c(Cc2ccc(C(=O)NC3(C)CC3)cc2)cc2c(=O)n([C@H]3CCOC[C@@H]3O)cnc2c1C [Example 43, 1,5-anhydro-2,3-dideoxy-3-(7,8-dimethyl-6-(4-((1-methylcyclopropyl)carbamoyl)-benzyl)-4-oxoquinazolin-3 (4H)-yl)-L-threo-pentitol] | 12
7 | Cc1c(Cc2ccc(-c3cnn(C(C)(C)C)c3)nc2)cc2c(=O)n([C@H]3CCOC[C@@H]3O)cnc2c1C [Example 72, 1,5-anhydro-3-(6-((6-(1-tert-butyl-1H-pyrazol-4-yl)pyridin-3-yl)methyl)-7,8-dimethyl-4-oxoquinazolin-3(4H)-yl)-2,3-dideoxy-L-threo-pentitol] | 2.9
8 | Cc1c(Cc2ccc(-c3cn(C)nn3)cc2)cc2c(=O)n([C@H]3CCOC[C@@H]3O)cnc2c1Cl [Example 15, 1,5-anhydro-3-(8-chloro-7-methyl-6-(4-(1-methyl-1H-1,2,3-triazol-4-yl)benzyl)-4-oxoquinazolin-3(4H)-yl)-2,3-dideoxy-L-threo-pentitol] | 9.7
9 | Cc1c(Cc2ccc(-n3cccn3)cc2)cc2c(=O)n([C@H]3CCOC[C@@H]3O)cnc2c1C [Comparative Example 1, 3-((3R,4S)-3-hydroxytetrahydro-2H-pyran-4-yl)-7,8-dimethyl-6-(4-(1H-pyrazol-1-yl)benzyl)quinazolin-4(3H)-one, reference compound] | 0.83
10 | Cc1nn(C)cc1-c1ccc(Cc2cc3c(=O)n([C@H]4CCOC[C@@H]4O)cnc3c(Cl)c2C)cn1 [Example 12, 1,5-anhydro-3-(8-chloro-6-((6-(1,3-dimethyl-1H-pyrazol-4-yl)pyridin-3-yl)methyl)-7-methyl-4-oxoquinazolin-3(4H)-yl)-2,3-dideoxy-L-threo-pentitol] | 17
11 | Cc1c(Cc2ccc(C(=O)NCC3CCCO3)cc2)cc2c(=O)n([C@H]3CCOC[C@@H]3O)cnc2c1C (stereo partly drawn) [Example 45, 1,5-anhydro-2,3-dideoxy-3-(7,8-dimethyl-4-oxo-6-(4-((tetrahydrofuran-2-ylmethyl)carbamoyl)benzyl)quinazolin-3 (4H)-yl)-L-threo-pentitol] | 23
12 | Cc1c(Cc2ccc(C(=O)NCCF)cc2)cc2c(=O)n([C@H]3CCOC[C@@H]3O)cnc2c1C [Example 37, 1,5-anhydro-2,3-dideoxy-3-(6-(4-((2-fluoroethyl)carbamoyl)benzyl)-7,8-dimethyl-4-oxoquinazolin-3 (4H)-yl)-L-threo-pentitol] | 12
13 | Cc1c(Cc2ccc(C(=O)NC3(C)COC3)cc2)cc2c(=O)n([C@H]3CCOC[C@@H]3O)cnc2c1C [Example 26, 1,5-anhydro-2,3-dideoxy-3-(7,8-dimethyl-6-(4-((3-methyloxetan-3-yl)carbamoyl)benzyl)-4-oxoquinazolin-3(4H)-yl)-L-threo-pentitol] | 24
14 | COc1cc2ncn([C@H]3CCOC[C@@H]3O)c(=O)c2cc1Cc1ccc(-c2cn(C)nn2)nc1 [Example 64, 1,5-anhydro-2,3-dideoxy-3-(7-methoxy-6-((6-(1-methyl-1H-1,2,3-triazol-4-yl)pyridin-3-yl)methyl)-4-oxoquinazolin-3 (4H)-yl)-L-threo-pentitol] | 36
15 | Cc1c(Cc2ccc(C(=O)NC(C)C)cc2)cc2c(=O)n([C@H]3CCOC[C@@H]3O)cnc2c1C [Example 36, 1,5-anhydro-2,3-dideoxy-3-(6-(4-(isopropylcarbamoyl)benzyl)-7,8-dimethyl-4-oxoquinazolin-3 (4H)-yl)-L-threo-pentitol] | 11
16 | Cc1c(Cc2ccc(C(=O)NCCN3CCOCC3)cc2)cc2c(=O)n([C@H]3CCOC[C@@H]3O)cnc2c1C [Example 47, 1,5-anhydro-2,3-dideoxy-3-(7,8-dimethyl-6-(4-((2-(morpholin-4-yl)ethyl)carbamoyl)benzyl)-4-oxoquinazolin-3 (4H)-yl)-L-threo-pentitol] | 24
17 | Cc1c(Cc2ccc(-c3cnn(CC(=O)N(C)C)c3)nc2)cc2c(=O)n([C@H]3CCOC[C@@H]3O)cnc2c1C [Example 82, 1,5-anhydro-2,3-dideoxy-3-(6-((6-(1-(2-(dimethylamino)-2-oxoethyl)-1H-pyrazol-4-yl)pyridin-3-yl)methyl)-7,8-dimethyl-4-oxoquinazolin-3(4H)-yl)-L-threo-pentitol] | > 18
18 | CNC(=O)c1ccc(Cc2cc3c(=O)n([C@H]4CCOC[C@@H]4O)nnc3c(C)c2C)cn1 [Example 91, 1,5-anhydro-2,3-dideoxy-3-(7,8-dimethyl-6-((6-(methylcarbamoyl)pyridin-3-yl)methyl)-4-oxo-1,2,3-benzotriazin-3 (4H)-yl)-L-threo-pentitol] | 5.9
19 | Cc1c(Cc2ccc(C(=O)NC3(C#N)CC3)c(F)c2)cc2c(=O)n([C@H]3CCOC[C@@H]3O)cnc2c1C [Example 89, 1,5-anhydro-3-(6-(4-((1-cyanocyclopropyl)carbamoyl)-3-fluorobenzyl)-7,8-dimethyl-4-oxoquinazolin-3 (4H)-yl)-2,3-dideoxy-L-threo-pentitol] | 16
20 | CCNC(=O)c1ccc(Cc2cc3c(=O)n([C@H]4CCOC[C@@H]4O)cnc3c(C)c2C)cc1 [Example 28, 1,5-anhydro-2,3-dideoxy-3-(6-(4-(ethylcarbamoyl)benzyl)-7,8-dimethyl-4-oxoquinazolin-3 (4H)-yl)-L-threo-pentitol] | 11
21 | Cc1c(Cc2ccc(-c3cn(C)nn3)cc2)cc2c(=O)n([C@H]3CCOC[C@@H]3O)nnc2c1Cl [Example 20, 1,5-anhydro-3-(8-chloro-7-methyl-6-(4-(1-methyl-1H-1,2,3-triazol-4-yl)benzyl)-4-oxo-1,2,3-benzotriazin-3(4H)-yl)-2,3-dideoxy-L-threo-pentitol] | 2.9
22 | Cc1c(Cc2ccc(C(=O)N3CC(C(F)F)C3)cc2)cc2c(=O)n([C@H]3CCOC[C@@H]3O)cnc2c1C [Example 52, 1,5-anhydro-2,3-dideoxy-3-(6-(4-((3-(difluoromethyl)azetidin-1-yl)carbonyl)benzyl)-7,8-dimethyl-4-oxoquinazolin-3 (4H)-yl)-L-threo-pentitol] | 18
23 | CNC(=O)c1ccc(Cc2cc3c(=O)n([C@H]4CCOC[C@@H]4O)cnc3c(F)c2C)cc1F [Example 21, 1,5-anhydro-2,3-dideoxy-3-(8-fluoro-6-(3-fluoro-4-(methylcarbamoyl)benzyl)-7-methyl-4-oxoquinazolin-3(4H)-yl)-L-threo-pentitol] | 20
